Laboratory results published in ChEMBL document CHEMBL3885881, “DrugMatrix”.

Organism: Rattus norvegicus
Assay: DrugMatrix - Regimen: Daily Repeat
Assay type: toxicity, organism-based, Sprague-Dawley
Design: regimen Daily Repeat, gender Male, age 6-8 weeks
Conditions: in vivo, po, route oral GAVAGE, vehicle 100 % WATER; for ABSOLUTE BASOPHIL / ABSOLUTE EOSINOPHIL / ABSOLUTE LYMPHOCYTE / ABSOLUTE MONOCYTE / ABSOLUTE SEGMENTED NEUTROPHIL / BASOPHIL / EOSINOPHIL / ERYTHROCYTE COUNT / HEMATOCRIT / HEMOGLOBIN / LEUKOCYTE COUNT / LYMPHOCYTE / MEAN CORPUSCULAR HEMOGLOBIN / MEAN CORPUSCULAR HEMOGLOBIN CONCENTRATION / MEAN CORPUSCULAR VOLUME / MONOCYTE / NEUTROPHIL / NUCLEATED RED BLOOD CELLS / PLATELET COUNT: tissue Blood; for ALANINE AMINOTRANSFERASE / ALBUMIN / ALKALINE PHOSPHATASE / ASPARTATE AMINOTRANSFERASE / BLOOD UREA NITROGEN / CARBON DIOXIDE / CHLORIDE / CHOLESTEROL / CREATINE PHOSPHOKINASE / CREATININE / GLUCOSE / LACTATE DEHYDROGENASE / LIPASE / PHOSPHORUS / POTASSIUM / SODIUM / TOTAL BILIRUBIN / TOTAL PROTEIN / URIC ACID: tissue Plasma
[1] = 100 mg/kg, 120 h, dose level Low, time 5 day
[2] = 750 mg/kg, 72 h, dose level High, time 3 day
[3] = 750 mg/kg, 120 h, dose level High, time 5 day

`NC(=O)c1cccnc1` [NIACINAMIDE] was tested, and the “ABSOLUTE BASOPHIL” value [1] was 0 CELLS/uL, the “ABSOLUTE EOSINOPHIL” value [1] was 0 CELLS/uL and the “ABSOLUTE LYMPHOCYTE” value [1] was 16541 CELLS/uL. For the same compound, the “ABSOLUTE MONOCYTE” value [1] was 560 CELLS/uL, the “ABSOLUTE SEGMENTED NEUTROPHIL” value [1] was 1799 CELLS/uL and the BASOPHIL [1] was 0%. For the same compound, the EOSINOPHIL [1] was 0%, the “ERYTHROCYTE COUNT” value [1] was 5.76 x10E6/uL and the HEMATOCRIT [1] was 36.2%. For the same compound, the HEMOGLOBIN [1] was 13.57 G/DL, the “LEUKOCYTE COUNT” value [1] was 18.9 x10E3/uL and the LYMPHOCYTE [1] was 87.67%. For the same compound, the “MEAN CORPUSCULAR HEMOGLOBIN” value [1] was 23.57 pg, the “MEAN CORPUSCULAR HEMOGLOBIN CONCENTRATION” value [1] was 37.47 G/DL and the “MEAN CORPUSCULAR VOLUME” value [1] was 62.9 fL. The MONOCYTE [1] was 3%, the NEUTROPHIL [1] was 9.33% and the “NUCLEATED RED BLOOD CELLS” value [1] was 0 /100WBC. For the same compound, the “PLATELET COUNT” value [1] was 1257.67 x10E3/uL, the “ALANINE AMINOTRANSFERASE” value [1] was 69.67 u/L and the ALBUMIN [1] was 4.27 G/DL. The “ALKALINE PHOSPHATASE” value [1] was 376.67 u/L, the “ASPARTATE AMINOTRANSFERASE” value [1] was 99.33 u/L and the “BLOOD UREA NITROGEN” value [1] was 17 mg/dL. For the same compound, the “CARBON DIOXIDE” value [1] was 24.33 mmol/L, the CHLORIDE [1] was 102.67 MEQ/L and the CHOLESTEROL [1] was 67.67 mg/dL. The “CREATINE PHOSPHOKINASE” value [1] was 270.33 u/L, the CREATININE [1] was 0.34 mg/dL and the GLUCOSE [1] was 140.67 mg/dL. The “LACTATE DEHYDROGENASE” value [1] was 278 u/L, the LIPASE [1] was 10.67 u/L and the PHOSPHORUS [1] was 13.13 mg/dL. For the same compound, the POTASSIUM [1] was 6.68 MEQ/L, the SODIUM [1] was 145.57 MEQ/L and the “TOTAL BILIRUBIN” value [1] was 0.2 mg/dL. The “TOTAL PROTEIN” value [1] was 6.03 G/DL, the “URIC ACID” value [1] was 1.6 mg/dL and the “ABSOLUTE BASOPHIL” value [2] was 0 CELLS/uL. The “ABSOLUTE EOSINOPHIL” value [2] was 108.33 CELLS/uL, the “ABSOLUTE LYMPHOCYTE” value [2] was 16413 CELLS/uL and the “ABSOLUTE MONOCYTE” value [2] was 47.67 CELLS/uL. For the same compound, the “ABSOLUTE SEGMENTED NEUTROPHIL” value [2] was 1431 CELLS/uL, the BASOPHIL [2] was 0% and the EOSINOPHIL [2] was 0.67%. For the same compound, the “ERYTHROCYTE COUNT” value [2] was 6.31 x10E6/uL, the HEMATOCRIT [2] was 40.5% and the HEMOGLOBIN [2] was 14.57 G/DL. The “LEUKOCYTE COUNT” value [2] was 18 x10E3/uL, the LYMPHOCYTE [2] was 91% and the “MEAN CORPUSCULAR HEMOGLOBIN” value [2] was 23.2 pg. The “MEAN CORPUSCULAR HEMOGLOBIN CONCENTRATION” value [2] was 36 G/DL, the “MEAN CORPUSCULAR VOLUME” value [2] was 64.37 fL and the MONOCYTE [2] was 0.33%. The NEUTROPHIL [2] was 8%, the “NUCLEATED RED BLOOD CELLS” value [2] was 0 /100WBC and the “PLATELET COUNT” value [2] was 1228.67 x10E3/uL. The “ALANINE AMINOTRANSFERASE” value [2] was 84 u/L, the ALBUMIN [2] was 4.57 G/DL and the “ALKALINE PHOSPHATASE” value [2] was 402 u/L. The “ASPARTATE AMINOTRANSFERASE” value [2] was 97.33 u/L, the “BLOOD UREA NITROGEN” value [2] was 17 mg/dL and the “CARBON DIOXIDE” value [2] was 27.33 mmol/L. For the same compound, the CHLORIDE [2] was 101 MEQ/L, the CHOLESTEROL [2] was 85 mg/dL and the “CREATINE PHOSPHOKINASE” value [2] was 304.67 u/L. For the same compound, the CREATININE [2] was 0.23 mg/dL, the GLUCOSE [2] was 150.67 mg/dL and the “LACTATE DEHYDROGENASE” value [2] was 174.67 u/L. For the same compound, the LIPASE [2] was 11 u/L, the PHOSPHORUS [2] was 10.23 mg/dL and the POTASSIUM [2] was 6.7 MEQ/L. The SODIUM [2] was 143.83 MEQ/L, the “TOTAL BILIRUBIN” value [2] was 0.2 mg/dL and the “TOTAL PROTEIN” value [2] was 6.17 G/DL. For the same compound, the “URIC ACID” value [2] was 1.8 mg/dL, the “ABSOLUTE BASOPHIL” value [3] was 0 CELLS/uL and the “ABSOLUTE EOSINOPHIL” value [3] was 45.33 CELLS/uL. The “ABSOLUTE LYMPHOCYTE” value [3] was 12211.67 CELLS/uL, the “ABSOLUTE MONOCYTE” value [3] was 352 CELLS/uL and the “ABSOLUTE SEGMENTED NEUTROPHIL” value [3] was 1824.33 CELLS/uL. The BASOPHIL [3] was 0%, the EOSINOPHIL [3] was 0.33% and the “ERYTHROCYTE COUNT” value [3] was 5.73 x10E6/uL. For the same compound, the HEMATOCRIT [3] was 36.63%, the HEMOGLOBIN [3] was 13.6 G/DL and the “LEUKOCYTE COUNT” value [3] was 14.43 x10E3/uL. The LYMPHOCYTE [3] was 85.33%, the “MEAN CORPUSCULAR HEMOGLOBIN” value [3] was 23.77 pg and the “MEAN CORPUSCULAR HEMOGLOBIN CONCENTRATION” value [3] was 37.13 G/DL. The “MEAN CORPUSCULAR VOLUME” value [3] was 63.93 fL, the MONOCYTE [3] was 2.33% and the NEUTROPHIL [3] was 12%. For the same compound, the “NUCLEATED RED BLOOD CELLS” value [3] was 0 /100WBC, the “PLATELET COUNT” value [3] was 1227.33 x10E3/uL and the “ALANINE AMINOTRANSFERASE” value [3] was 71.67 u/L. For the same compound, the ALBUMIN [3] was 4.53 G/DL, the “ALKALINE PHOSPHATASE” value [3] was 405.67 u/L and the “ASPARTATE AMINOTRANSFERASE” value [3] was 97 u/L. The “BLOOD UREA NITROGEN” value [3] was 18 mg/dL, the “CARBON DIOXIDE” value [3] was 28.67 mmol/L and the CHLORIDE [3] was 101.67 MEQ/L. The CHOLESTEROL [3] was 92 mg/dL, the “CREATINE PHOSPHOKINASE” value [3] was 216.33 u/L and the CREATININE [3] was 0.2 mg/dL. For the same compound, the GLUCOSE [3] was 160.33 mg/dL, the “LACTATE DEHYDROGENASE” value [3] was 82 u/L and the LIPASE [3] was 11 u/L. The PHOSPHORUS [3] was 10.6 mg/dL, the POTASSIUM [3] was 5.82 MEQ/L and the SODIUM [3] was 147.1 MEQ/L. For the same compound, the “TOTAL BILIRUBIN” value [3] was 0.2 mg/dL, the “TOTAL PROTEIN” value [3] was 6.33 G/DL and the “URIC ACID” value [3] was 1.3 mg/dL.
